Assay results: patent US8080552B2, “Pyrimidyl derivatives as protein kinase inhibitors” (Hoffmann-LA Roche Inc., priority 2006, dated 2011)

What was measured:
VEGF-induced HUVEC cells = experiment: CellTiter-Glo assay in VEGF-induced HUVEC cells; format: cell-based; conditions: Homo sapiens; Table 2; VEGF-induced (20 ng/ml) HUVEC cells, 72 hours, cell viability (ATP luminescence); read-out: IC50 HCT 116
Experimental: CellTiter-Glo™ Assay in VEGF-Induced HUVEC Cells:
HUVEC-c (Human Umbilical Vein Endothelial Cells, from Promocell Cat-No. C-12200) cells were trypsinized, spinned down and plated in 384-well plates at 1500 cells per well in 60 μl endothelial basal medium (EBM-2 from Promocell, Cat-No. C-22211) with 0.5% Fetal Calf Serum (FCS, Sigma Cat-No. F4135 (FBS)). Cells were incubated overnight at 37° C., and the next day, test compounds (stock solution 140 μmol/l in medium with 4.2% dimethylsulfoxide (DMSO)) were added in 5 μl medium over a final concentration range of 10 μmol/l to 0.5 nmol/l and 0.3% DMSO. Compounds were tested in triplicates. After 2 hrs 5 μl VEGF (VEGF 165, R&D Systems, Cat-No. 293-VE-010, stock solution 280 ng/ml in medium) was added to a final concentration of 20 ng/ml. Cells were incubated for 72 hours at 37° C. in medium. Cell number was quantitated using CellTiter-Glo™ Luminescent Cell Viability Assay (from Promega) according to the instructions of the supplier. This assay measures the number of viable cells per well by measurement of luminescent signal based on amount of cellular ATP. IC50 are determined using a non-linear curve fit (XLfit software (ID Business Solution Ltd., Guilford, Surrey, UK)) (see also CellTiter-Glo™ assay in HCT 116 cells above).

HCT 116 cells = experiment: CellTiter-Glo assay in HCT 116 cells; format: cell-based; conditions: 120 h; HCT 116 human colon carcinoma cells, 5 days incubation, cell viability (ATP luminescence)
From the text: CellTiter-Glo™ Assay in HCT 116 Cells:
The CellTiter-Glo™ Luminescent Cell Viability Assay (Promega) is a homogeneous method of determining the number of viable cells in culture based on quantitation of the ATP present, which signals the presence of metabolically active cells.
HCT 116 cells (human colon carcinoma, ATCC-No. CCl-247) were cultivated in RPMI 1640 medium with GlutaMAX™ I (Invitrogen, Cat-No. 61870-010), 5% Fetal Calf Serum (FCS, Sigma Cat-No. F4135 (FBS)); 100 Units/ml penicillin/100 μg/ml streptomycin (=Pen/Strep from Invitrogen Cat. No. 15140). For the assay the cells were seeded in 384 well plates, 1000 cells per well, in the same medium. The next day the test compounds were added in various concentrations ranging from 30 μM to 0.0015 μM (10 concentrations, 1:3 diluted). After 5 days the CellTiter-Glo™ assay was done according to the instructions of the manufacturer (CellTiter-Glo™ Luminescent Cell Viability Assay, from Promega). In brief: the cell-plate was equilibrated to room temperature for approximately 30 minutes and than the CellTiter-Glo™ reagent was added. The contents were carefully mixed for 15 minutes to induce cell lysis. After 45 minutes the luminescent signal was measured in Victor 2, (scanning multiwell spectrophotometer, Wallac).
• Medium: RPMI 1640 with GlutaMAX™ I (Invitrogen, Cat-Nr. 61870), 5% FCS (Sigma Cat.-No. F4135), Pen/Strep (Invitrogen, Cat No. 15140). • HCT116 (ATCC-No. CCl-247): 1000 cells in 60 μl per well of 384 well plate (Greiner 781098, μClear-plate white) • After seeding incubate plates 24 h at 37° C., 5% CO2 2nd. Day: Induction (Treatment with Compounds, 10 Concentrations):
In order to achieve a final concentration of 30 μM as highest concentration 3.5 μl of 10 mM compound stock solution were added directly to 163 μl media. Then step e) of the dilution procedure described below, was followed.

SMILES | IC50 (HCT 116 cells) [µM] | IC50 (VEGF-induced HUVEC cells) [µM]
COc1ccc(C(F)(F)F)cc1NC(=O)Nc1ccc(Oc2ccnc(NCCCO)n2)cc1 [Example 1, 1-{4-[2-(3-Hydroxy-propylamino)-pyrimidin-4-yloxy]-phenyl}-3-(2-methoxy-5-trifluoromethyl-phenyl)-urea] |  | 0.067
O=C(Nc1ccc(Oc2ccnc(NCCCO)n2)cc1)Nc1ccc(OC(F)(F)F)cc1 [Example 3, 1-{4-[2-(3-Hydroxy-propylamino)-pyrimidin-4-yloxy]-phenyl}-3-(4-trifluoromethoxy-phenyl)-urea] | 0.3 to 10 | 0.005 to 0.75
CC(C)(C)c1ccc(NC(=O)Nc2ccc(Oc3ccnc(NCCCO)n3)cc2)cc1 [Example 5, 1-(4-tert-Butyl-phenyl)-3-{4-[2-(3-Hydroxy-propylamino)-pyrimidin-4-yloxy]-phenyl}-urea] |  | 0.005 to 0.75
O=C(Nc1ccc(Oc2ccnc(NCCCCO)n2)cc1)Nc1ccc(Cl)c(C(F)(F)F)c1 [Example 10, 1-(4-Chloro-3-trifluoromethylphenyl)-3-{4-[2-(4-hydroxy-butylamino)-pyrimidin-4-yloxy]-phenyl}-urea] | 0.3 to 10 | 0.005 to 0.75
O=C(Nc1ccccc1)Nc1ccc(Oc2ccnc(NCCCO)n2)cc1 [Example 13, 1-{4-[2-(3-Hydroxy-propylamino)-pyrimidin-4-yloxy]-phenyl}-3-phenyl-urea] | 0.3 to 10 | 0.005 to 0.75
C[Si](C)(C)c1ccc(NC(=O)Nc2ccc(Oc3ccnc(NCCCO)n3)cc2)cc1 [Example 14, 1-{4-[2-(3-Hydroxy-propylamino)-pyrimidin-4-yloxy]-phenyl}-3-(4-trimethylsilanyl-phenyl)-urea] | 1.52 | 0.005 to 0.75
O=C(Nc1ccc(Oc2ccnc(NCCCO)n2)c(Cl)c1)Nc1ccc(Cl)c(C(F)(F)F)c1 [Example 15, 1-(4-Chloro-3-trifluoromethyl-phenyl)-3-{3-chloro-4-[2-(3-hydroxy-propylamino)-pyrimidin-4-yloxy]-phenyl}-urea] |  | 0.005 to 0.75
O=C(Nc1ccc(Cl)c(C(F)(F)F)c1)Nc1ccc(Oc2ccnc(NCCCO)n2)cc1F [Example 18, 1-(4-Chloro-3-trifluoromethyl-phenyl)-3-{2-fluoro-4-[2-(3-hydroxy-propylamino)-pyrimidin-4-yloxy]-phenyl}-urea] | 0.3 to 10 | 0.005 to 0.75
O=C(Nc1ccc(Oc2ccnc(NCCCO)n2)cc1)Nc1cc(C(F)(F)F)ccc1Cl [Example 19, 1-(2-Chloro-5-trifluoromethyl-phenyl)-3-{4-[2-(3-hydroxy-propylamino)-pyrimidin-4-yloxy]-phenyl}-urea] |  | 0.005 to 0.75
O=C(Nc1ccc(Oc2cc(NCCCO)ncn2)cc1)Nc1ccc(Cl)c(C(F)(F)F)c1 [Example 23, 1-(4-Chloro-3-trifluoromethyl-phenyl)-3-{4-[6-(3-hydroxy-propylamino)-pyrimidin-4-yloxy]-phenyl}-urea] |  | 0.005 to 0.75
CC(C#N)c1cccc(NC(=O)Nc2ccc(Oc3ccnc(NCCCO)n3)cc2)c1 (stereo not drawn) [Example 26, 1-[3-(Cyano-methyl-methyl)-phenyl]-3-{4-[2-(3-hydroxy-propylamino)-pyrimidin-4-yloxy]-phenyl}-urea] | 0.3 to 10 | 0.005 to 0.75

More lines, main results first:

IC50 (HCT 116 cells) [µM] | SMILES | IC50 (VEGF-induced HUVEC cells) [µM]
0.67 | O=C(Nc1ccc(Oc2ccnc(NCCCO)n2)cc1)Nc1cccc(OC(F)(F)F)c1 [Example 2, 1-{4-[2-(3-Hydroxy-propylamino)-pyrimidin-4-yloxy]-phenyl}-3-(3-trifluoromethoxy-phenyl)-urea] | 0.005 to 0.75
0.3 to 10 | CC(C)(C)c1cccc(NC(=O)Nc2ccc(Oc3ccnc(NCCCO)n3)cc2)c1 [Example 4, 1-(3-tert-Butyl-phenyl)-3-{4-[2-(3-Hydroxy-propylamino)-pyrimidin-4-yloxy]-phenyl}-urea] | 0.005 to 0.75
0.3 to 10 | O=C(Nc1ccc(Cl)cc1)Nc1ccc(Oc2ccnc(NCCCO)n2)cc1 [Example 6, 1-(4-Chloro-phenyl)-3-{4-[2-(3-hydroxy-propylamino)-pyrimidin-4-yloxy]-phenyl}-urea] | 0.257
0.3 to 10 | O=C(Nc1ccc(Oc2ccnc(NCCCO)n2)cc1)Nc1cccc(C(F)(F)F)c1 [Example 7, 1-{4-[2-(3-Hydroxy-propylamino)-pyrimidin-4-yloxy]-phenyl}-3-(3-trifluoromethyl-phenyl)-urea] | 0.005 to 0.75
0.3 to 10 | O=C(Nc1ccc(Oc2ccnc(NCCCO)n2)cc1)Nc1cc(C(F)(F)F)ccc1F [Example 8, 1-(2-Fluoro-5-trifluoromethyl-phenyl)-3-{4-[2-(3-Hydroxy-propylamino)-pyrimidin-4-yloxy]-phenyl}-urea] | 0.005 to 0.75
3.99 | O=C(Nc1ccc(Oc2ccnc(NCCCO)n2)cc1)Nc1ccc(Cl)c(C(F)(F)F)c1 [Example 9, 1-(4-Chloro-3-trifluoromethylphenyl)-3-{4-[2-(3-Hydroxy-propylamino)-pyrimidin-4-yloxy]-phenyl}-urea] | 0.005 to 0.75
0.3 to 10 | O=C(Nc1ccc(Oc2ccnc(NCCO)n2)cc1)Nc1ccc(Cl)c(C(F)(F)F)c1 [Example 11, 1-(4-Chloro-3-trifluoromethylphenyl)-3-{4-[2-(2-hydroxy-ethylamino)-pyrimidin-4-yloxy]-phenyl}-urea] | 
0.3 to 10 | CC(O)CCNc1nccc(Oc2ccc(NC(=O)Nc3ccc(Cl)c(C(F)(F)F)c3)cc2)n1 (stereo not drawn) [Example 12, 1-(4-Chloro-3-trifluoromethylphenyl)-3-{4-[2-(3-hydroxy-butylamino)-pyrimidin-4-yloxy]-phenyl}-urea] | 0.005 to 0.75
0.3 to 10 | O=C(Nc1ccc(Oc2ccnc(NCCCO)n2)c(F)c1)Nc1ccc(Cl)c(C(F)(F)F)c1 [Example 17, 1-(4-Chloro-3-trifluoromethyl-phenyl)-3-{3-fluoro-4-[2-(3-hydroxy-propylamino)-pyrimidin-4-yloxy]-phenyl}-urea] | 0.005 to 0.75
0.3 to 10 | O=C(Nc1ccc(Oc2cc(NCCO)ncn2)cc1)Nc1cccc(C(F)(F)F)c1 [Example 20, 1-{4-[6-(2-Hydroxy-ethylamino)-pyrimidin-4-yloxy]-phenyl}-3-(3-trifluoromethyl-phenyl)-urea] | 0.005 to 0.75
0.3 to 10 | O=C(Nc1ccc(Oc2cc(NCCCO)ncn2)cc1)Nc1cccc(C(F)(F)F)c1 [Example 21, 1-{4-[6-(3-Hydroxy-propylamino)-pyrimidin-4-yloxy]-phenyl}-3-(3-trifluoromethyl-phenyl)-urea] | 0.005 to 0.75
0.3 to 10 | O=C(Nc1ccc(Oc2cc(NCCO)ncn2)cc1)Nc1ccc(Cl)c(C(F)(F)F)c1 [Example 22, 1-(4-Chloro-3-trifluoromethyl-phenyl)-3-{4-[6-(2-hydroxy-ethylamino)-pyrimidin-4-yloxy]-phenyl}-urea] | 0.005 to 0.75
0.3 to 10 | CC(C)(C#N)c1ccc(NC(=O)Nc2ccc(Oc3ccnc(NCCCO)n3)cc2)cc1 [Example 24, 1-[4-(Cyano-dimethyl-methyl)-phenyl]-3-{4-[2-(3-Hydroxy-propylamino)-pyrimidin-4-yloxy]-phenyl}-urea] | 
0.3 to 10 | CC(C)(C#N)c1cccc(NC(=O)Nc2ccc(Oc3ccnc(NCCCO)n3)cc2)c1 [Example 25, 1-[3-(Cyano-dimethyl-methyl)-phenyl]-3-{4-[2-(3-hydroxy-propylamino)-pyrimidin-4-yloxy]-phenyl}-urea] | 0.005 to 0.75
0.3 to 10 | O=C(Nc1ccc(Oc2ccnc(NCCCO)n2)cc1)Nc1ccc2c(c1)OC(F)(F)O2 [Example 28, 1-(2,2-Difluoro-benzo[1,3]dioxol-5-yl)-3-{4-[2-(3-hydroxy-propylamino)-pyrimidin-4-yloxy]-phenyl}-urea] | 0.082
